Data reported in ChEMBL document CHEMBL1641501, “Discovery of selective irreversible inhibitors for EGFR-T790M” (Bioorg Med Chem Lett, 2011).
Active and inactive are the calls of the source. The rule behind the calls is not given here.

Assays:
PC-9 [1] = experiment: Antiproliferative activity against EGFR-deficient human PC9 cells; assay type: functional, cell-based
PC-9 [2] = experiment: Antiproliferative activity against growth-resistant human PC9 cells expressing EGFR E746_A750/T790M mutant; assay type: functional, cell-based
[3] = Antiproliferative activity against mouse BA/F3 cells transfected with EGFR L858R/T790M/C797S mutant; assay type: functional, cell-based; settings: BaF3
[4] = Antiproliferative activity against mouse BA/F3 cells transfected with EGFR L858R/T790M mutant; assay type: functional, cell-based; settings: BaF3
[5] = Antiproliferative activity against mouse BA/F3 cells transfected with EGFR E746_A750/T790M mutant; assay type: functional, cell-based; settings: BaF3
[6] = biological target: Tyrosine-protein kinase Blk (Homo sapiens) (UniProt P51451); experiment: Inhibition of Blk transfected with TEL fusion in mouse BA/F3 cells; assay type: cell-based; settings: BaF3
[7] = Antiproliferative activity against mouse BA/F3 cells transfected with EGFR E746_A750_del/T790M/C797S mutant; assay type: functional, cell-based; settings: BaF3
[8] = biological target: T1, Tyrosine-protein kinase JAK3 (Homo sapiens) (UniProt P52333); experiment: Inhibition of Jak3 transfected with TEL fusion in mouse BA/F3 cells; assay type: cell-based; settings: BaF3
T1 sequence (whole entry): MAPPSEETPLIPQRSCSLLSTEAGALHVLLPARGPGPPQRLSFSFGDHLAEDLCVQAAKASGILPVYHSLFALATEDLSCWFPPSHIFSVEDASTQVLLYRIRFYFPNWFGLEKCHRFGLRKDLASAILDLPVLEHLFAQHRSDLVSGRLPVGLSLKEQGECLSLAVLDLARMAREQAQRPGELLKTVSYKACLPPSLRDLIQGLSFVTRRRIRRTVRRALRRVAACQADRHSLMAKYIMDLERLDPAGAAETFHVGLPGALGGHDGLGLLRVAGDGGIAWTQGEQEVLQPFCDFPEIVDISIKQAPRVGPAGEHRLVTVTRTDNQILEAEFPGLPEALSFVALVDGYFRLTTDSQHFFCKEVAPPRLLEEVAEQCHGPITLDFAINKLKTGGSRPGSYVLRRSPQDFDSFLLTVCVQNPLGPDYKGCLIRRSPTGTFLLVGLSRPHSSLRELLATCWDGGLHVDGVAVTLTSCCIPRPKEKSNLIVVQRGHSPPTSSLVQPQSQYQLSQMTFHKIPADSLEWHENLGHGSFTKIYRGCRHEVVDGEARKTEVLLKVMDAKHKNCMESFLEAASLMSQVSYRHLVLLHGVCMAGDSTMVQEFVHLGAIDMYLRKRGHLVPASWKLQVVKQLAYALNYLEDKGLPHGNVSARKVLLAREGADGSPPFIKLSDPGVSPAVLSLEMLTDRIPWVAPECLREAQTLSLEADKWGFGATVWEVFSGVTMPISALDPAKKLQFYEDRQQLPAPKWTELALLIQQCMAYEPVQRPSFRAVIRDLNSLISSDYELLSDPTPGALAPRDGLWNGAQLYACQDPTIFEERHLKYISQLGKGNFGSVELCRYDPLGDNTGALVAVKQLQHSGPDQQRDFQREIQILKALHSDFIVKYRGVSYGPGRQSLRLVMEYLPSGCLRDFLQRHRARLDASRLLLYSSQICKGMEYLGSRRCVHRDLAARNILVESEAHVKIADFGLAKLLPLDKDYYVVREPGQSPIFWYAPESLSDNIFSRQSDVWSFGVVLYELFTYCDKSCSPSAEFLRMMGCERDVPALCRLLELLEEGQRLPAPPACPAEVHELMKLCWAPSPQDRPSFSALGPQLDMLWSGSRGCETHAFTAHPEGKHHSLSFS

[9] = biological target: T2, Cytoplasmic tyrosine-protein kinase BMX (Homo sapiens) (UniProt P51813); experiment: Inhibition of Bmx transfected with TEL fusion in mouse BA/F3 cells; assay type: cell-based; settings: BaF3
T2 sequence (whole entry): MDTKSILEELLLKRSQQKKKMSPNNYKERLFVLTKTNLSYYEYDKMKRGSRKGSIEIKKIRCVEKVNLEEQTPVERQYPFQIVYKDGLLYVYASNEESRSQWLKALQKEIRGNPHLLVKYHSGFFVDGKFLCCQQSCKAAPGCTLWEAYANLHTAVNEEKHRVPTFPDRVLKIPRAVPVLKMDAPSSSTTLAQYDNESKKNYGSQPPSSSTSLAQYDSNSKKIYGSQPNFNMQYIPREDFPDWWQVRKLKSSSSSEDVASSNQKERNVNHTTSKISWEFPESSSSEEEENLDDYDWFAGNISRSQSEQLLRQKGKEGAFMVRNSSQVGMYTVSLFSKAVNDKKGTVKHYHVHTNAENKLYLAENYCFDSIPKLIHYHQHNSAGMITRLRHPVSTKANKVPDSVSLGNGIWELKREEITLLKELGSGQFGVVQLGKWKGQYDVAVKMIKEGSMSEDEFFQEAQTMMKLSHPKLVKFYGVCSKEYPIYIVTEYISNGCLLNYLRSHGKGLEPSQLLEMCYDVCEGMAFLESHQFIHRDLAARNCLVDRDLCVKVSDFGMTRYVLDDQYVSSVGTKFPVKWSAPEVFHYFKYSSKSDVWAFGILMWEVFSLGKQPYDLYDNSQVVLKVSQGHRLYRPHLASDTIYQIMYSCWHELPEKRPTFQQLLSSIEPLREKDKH

[10] = Antiproliferative activity against mouse BA/F3 cells transfected with EGFR E746_A750_del/T790M mutant; assay type: functional, cell-based; settings: BaF3

Chain of Tyrosine-protein kinase Blk (Homo sapiens) (P51451 2-505 limits assumed): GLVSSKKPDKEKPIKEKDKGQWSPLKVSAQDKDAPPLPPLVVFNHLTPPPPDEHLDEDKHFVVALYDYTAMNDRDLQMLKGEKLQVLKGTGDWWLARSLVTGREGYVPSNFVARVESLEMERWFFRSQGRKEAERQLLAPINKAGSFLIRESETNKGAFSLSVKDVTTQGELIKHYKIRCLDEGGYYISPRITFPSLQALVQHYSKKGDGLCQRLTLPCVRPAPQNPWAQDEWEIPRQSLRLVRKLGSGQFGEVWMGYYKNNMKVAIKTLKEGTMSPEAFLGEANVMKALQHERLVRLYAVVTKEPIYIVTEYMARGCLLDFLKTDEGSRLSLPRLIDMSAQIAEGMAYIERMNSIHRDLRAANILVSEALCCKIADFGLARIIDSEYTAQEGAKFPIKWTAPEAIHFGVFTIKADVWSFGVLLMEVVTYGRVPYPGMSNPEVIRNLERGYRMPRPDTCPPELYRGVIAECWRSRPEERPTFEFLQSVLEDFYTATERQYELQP

C=CC(=O)Nc1ccc(Oc2ncnc3[nH]cc(-c4cnc5ccccc5c4)c23)cc1
EC50 (PC-9 [1]): 10 µM
EC50 (PC-9 [2]): 10 µM

C=CC(=O)Nc1cccc(Oc2nc(Nc3ccc(C(=O)NCCN4CCOCC4)cc3OC)ncc2Cl)c1
EC50 (PC-9 [2]): 0.5 µM

C=CC(=O)N1CCCC(Nc2nc(Nc3ccc(N(C)C(=O)CC)cc3)nc3[nH]cnc23)C1 (centres undefined)
EC50 (PC-9 [1]): 7 µM
EC50 (PC-9 [2]): 10 µM

C=CC(=O)Nc1cccc(Oc2nc(Nc3ccc(F)cc3OC)ncc2Cl)c1
EC50 (PC-9 [2]): 0.8 µM

C=CC(=O)Nc1cccc(Sc2nc(Nc3ccc(N4CCN(C)CC4)cc3OC)ncc2Cl)c1
EC50 (PC-9 [1]): 0.02 µM
EC50 (PC-9 [2]): 0.02 µM

C=CC(=O)Nc1cccc(Oc2nc(Nc3ccc(N4CCOCC4)cc3OC)ncc2Cl)c1
EC50 (PC-9 [2]): 0.15 µM

C=CC(=O)Nc1cccc(Nc2nc(Nc3ccc(N4CCN(C)CC4)cc3OC)ncc2Cl)c1
EC50 (PC-9 [1]): 0.04 µM
EC50 (PC-9 [2]): 0.02 µM

C=CC(=O)Nc1cccc(Oc2nc(Nc3ccc(N4CCN(C)CC4)cc3OC)ncc2Cl)c1
EC50 [3]: > 3.3 µM
EC50 [4]: 0.008 µM
EC50 [5]: 1.29 µM
EC50 (PC-9 [1]): 0.036 µM
EC50 (PC-9 [2]): 0.014 µM
inhibition [6]: Active
EC50 [7]: > 3.3 µM
inhibition [8]: Active
inhibition [9]: Active
EC50 [10]: 0.002 µM

C=CC(=O)Nc1cccc(Oc2nc(Nc3ccc(-c4ccncc4)cc3OC)ncc2Cl)c1
EC50 (PC-9 [2]): 0.9 µM

C=CC(=O)Nc1cccc(Oc2nc(Nc3ccc(N4CCN(C)CC4)cc3)ncc2Cl)c1
EC50 (PC-9 [1]): 0.015 µM
EC50 (PC-9 [2]): 0.003 µM

C=CC(=O)Nc1cccc(Oc2nc(Nc3ccc(C4CCN(C)CC4)cc3OC)ncc2Cl)c1
EC50 (PC-9 [1]): 0.1 µM
EC50 (PC-9 [2]): 0.04 µM

C=CC(=O)N1CCCC(Nc2nc(Nc3ccc(C(=O)N4CCN(C)CC4)cc3)nc3[nH]cnc23)C1 (centres undefined)
EC50 (PC-9 [1]): 10 µM
EC50 (PC-9 [2]): 10 µM

C=CC(=O)Nc1cccc(Oc2nc(Nc3ccc(N4CCN(C)CC4)cc3C(F)(F)F)ncc2Cl)c1
EC50 (PC-9 [2]): 0.09 µM

C=CC(=O)Nc1cccc(Oc2nc(Nc3ccc(C4=CCN(C)CC4)cc3OC)ncc2Cl)c1
EC50 (PC-9 [2]): 0.2 µM

C=CC(=O)Nc1cccc(Oc2nc(Nc3ccc(C(=O)N4CCN(C)CC4)cc3OC)ncc2Cl)c1
EC50 (PC-9 [1]): > 1 µM
EC50 (PC-9 [2]): > 1 µM

C=CC(=O)Nc1cccc(Oc2nc(Nc3ccc(N4CCC(O)CC4)cc3OC)ncc2Cl)c1
EC50 (PC-9 [1]): 0.2 µM
EC50 (PC-9 [2]): 0.8 µM

C=CC(=O)Nc1cccc(Oc2nc(Nc3ccc(N4CCN(C)CC4)cc3OC)ncc2Cl)c1F
EC50 (PC-9 [2]): 0.031 µM

C=CC(=O)Nc1cc(F)cc(Oc2nc(Nc3ccc(N4CCN(C)CC4)cc3OC)ncc2Cl)c1
EC50 (PC-9 [2]): 0.02 µM

C=CC(=O)Nc1cccc(Oc2nc(Nc3ccc(N4CCN(C)CC4)cc3)ncc2C(F)(F)F)c1
EC50 (PC-9 [1]): 0.7 µM
EC50 (PC-9 [2]): 0.8 µM

C=CC(=O)Nc1cccc(Oc2nc(Nc3ccc(CC(=O)N4CCN(C)CC4)cc3)ncc2Cl)c1
EC50 (PC-9 [2]): 0.05 µM

C=CC(=O)Nc1cccc(Oc2nc(Nc3ccc(C(=O)NC4CCN(C)CC4)cc3)ncc2Cl)c1
EC50 (PC-9 [1]): 0.8 µM
EC50 (PC-9 [2]): 1 µM

C=CC(=O)Nc1cccc(Oc2nc(Nc3ccc(N4CCN(C)CC4)cc3OC)ncc2Cl)c1Cl
EC50 (PC-9 [1]): > 1 µM
EC50 (PC-9 [2]): > 1 µM

C=CC(=O)Nc1cccc(Oc2nc(Nc3ccc(CN4CCN(C)CC4)cc3)ncc2Cl)c1
EC50 (PC-9 [2]): 0.03 µM

C=CC(=O)N1CCCC(N(C)c2nc(Nc3ccc(N(C)C(=O)CC)cc3)nc3[nH]cnc23)C1 (centres undefined)
EC50 (PC-9 [1]): 0.9 µM
EC50 (PC-9 [2]): 6 µM

C=CC(=O)Nc1cccc(Oc2nc(Nc3ccc(CCN4CCN(C)CC4)cc3)ncc2Cl)c1
EC50 (PC-9 [2]): 0.008 µM

C=CC(=O)Nc1cccc(Oc2ncnc3[nH]cc(-c4cccnc4)c23)c1
EC50 (PC-9 [1]): 0.5 µM
EC50 (PC-9 [2]): 0.5 µM

C=CC(=O)Nc1cccc(Oc2nc(Nc3ccc(C(=O)N4CCN(C)CC4)cc3)ncc2Cl)c1
EC50 (PC-9 [1]): 0.8 µM
EC50 (PC-9 [2]): 0.8 µM

C=CC(=O)Nc1cccc(Oc2ncnc3[nH]cc(-c4ccc(OC)cc4)c23)c1
EC50 (PC-9 [1]): 6 µM
EC50 (PC-9 [2]): 6 µM

C=CC(=O)Nc1cccc(Oc2nc(Nc3ccc(N4CCN(C)CC4)cc3)ncc2Br)c1
EC50 (PC-9 [1]): 0.8 µM
EC50 (PC-9 [2]): 0.9 µM

C=CC(=O)Nc1cccc(Oc2ccnc(Nc3ccc(N4CCN(C)CC4)cc3)n2)c1
EC50 (PC-9 [1]): 0.08 µM
EC50 (PC-9 [2]): > 1 µM

C=CC(=O)Nc1cccc(Oc2nc(Nc3ccc(C(=O)NC4CCN(C)CC4)cc3OC)ncc2Cl)c1
EC50 (PC-9 [1]): 0.5 µM
EC50 (PC-9 [2]): 0.8 µM

C=CC(=O)N1CCCC(Nc2nc(Nc3ccc(N4CCN(C)CC4)cc3)nc3[nH]cnc23)C1 (centres undefined)
EC50 (PC-9 [1]): 1 µM
EC50 (PC-9 [2]): 5 µM

C=CC(=O)Nc1cccc(Sc2nc(Nc3ccc(N4CCN(C)CC4)cc3)ncc2Cl)c1
EC50 (PC-9 [1]): 0.006 µM
EC50 (PC-9 [2]): 0.008 µM

C=CC(=O)Nc1ccc(Oc2ncnc3[nH]cc(-c4cccnc4)c23)cc1
EC50 (PC-9 [1]): 6 µM
EC50 (PC-9 [2]): 6 µM

C=CC(=O)Nc1cccc(Oc2nc(Nc3ccc(CN4CCN(C)CC4)cc3C(F)(F)F)ncc2Cl)c1
EC50 (PC-9 [2]): 0.42 µM

C=CC(=O)Nc1cccc(Oc2nc(Nc3ccc(N4CCC(N5CCN(C)CC5)CC4)cc3OC)ncc2Cl)c1
EC50 (PC-9 [1]): 0.08 µM
EC50 (PC-9 [2]): 0.1 µM

C=CC(=O)Nc1cccc(Oc2[nH]cnc3ncc(-c4cnc5ccccc5c4)c2-3)c1
EC50 (PC-9 [1]): 6 µM
EC50 (PC-9 [2]): 8 µM

C=CC(=O)Nc1cccc(Oc2nc(Nc3ccc(N4CCN(C)CC4)cc3)nc3[nH]cnc23)c1
EC50 (PC-9 [1]): 0.3 µM
EC50 (PC-9 [2]): 0.6 µM

C=CC(=O)Nc1cccc(Oc2nc(Nc3ccc(C4CCCN(C)C4)cc3OC)ncc2Cl)c1 (centres undefined)
EC50 (PC-9 [1]): 0.1 µM
EC50 (PC-9 [2]): 0.2 µM
